In patent US12685312B2, “Sulfonamide apyrase inhibitors” (Texas Crop Science, Inc., priority 2022, dated 2026):

Tested on: apyrase
Assay: Screen for apyrase inhibitors (Method 1, in vitro phosphate-release absorbance assay)
Type: biochemical
Details: inhibitor conc at 1 mM stock, 1 hr room temperature, absorbance 630 nm; rounded average of two assay results
In short: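 Phosphate-release colorimetric assay (Windsor method) in 60 mM Hepes, 3 mM MgCl2, 3 mM CaCl2, 3 mM ATP, pH 6.5, with compound or DMSO control added. Released phosphate developed with ammonium molybdate and ascorbic acid/TCA, then stopped with citrate/acetic acid.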

Compound	% Inhibition of Apyrase [%]
O=C(Nc1ccc2c(c1)OCCCO2)c1cccc(S(=O)(=O)Nc2ccc3c(c2)OCO3)c1 [I-258, 3-(N-(benzo[d][1,3]dioxol-5-yl)sulfamoyl)-N-(3,4-dihydro-2H-benzo[b][1,4]dioxepin-7-yl)benzamide]	61
O=C(Nc1ccc(OCC(F)(F)F)cc1)c1cccc(S(=O)(=O)Nc2ccc3c(c2)OCO3)c1 [I-259, 3-(N-(benzo[d][1,3]dioxol-5-yl)sulfamoyl)-N-(4-(2,2,2-trifluoroethoxy)phenyl)benzamide]	60
O=C(NCC1(c2ccc(Br)cc2)CCOCC1)c1cccc(S(=O)(=O)Nc2ccc(Br)cc2)c1 [I-260, 3-(N-(4-bromophenyl)sulfamoyl)-N-((4-(4-bromophenyl)tetrahydro-2H-pyran-4-yl)methyl)benzamide]	60
Cc1nc2ccc(NC(=O)c3cccc(S(=O)(=O)Nc4ccc5c(c4)OCO5)c3)cc2s1 [I-261, 3-(N-(benzo[d][1,3]dioxol-5-yl)sulfamoyl)-N-(2-methylbenzo[d]thiazol-6-yl)benzamide]	60
O=C(c1cccc(S(=O)(=O)Nc2ccc(Br)cc2)c1)N1CCc2sccc2C1 [I-262, N-(4-bromophenyl)-3-(4,5,6,7-tetrahydrothieno[3,2-c]pyridine-5-carbonyl)benzenesulfonamide]	59
COc1ccc([N+](=O)[O-])cc1NC(=O)c1cccc(S(=O)(=O)N2CCc3ccccc32)c1 [I-263, 3-(indolin-1-ylsulfonyl)-N-(2-methoxy-5-nitrophenyl)benzamide]	59
O=C(Nc1ccccc1)c1cccc(S(=O)(=O)Nc2ccc3c(c2)OCO3)c1 [I-264, 3-(N-(benzo[d][1,3]dioxol-5-yl)sulfamoyl)-N-phenylbenzamide]	59
O=C(Nc1cccc(F)c1)c1cccc(S(=O)(=O)Nc2ccc3c(c2)OCO3)c1 [I-265, 3-(N-(benzo[d][1,3]dioxol-5-yl)sulfamoyl)-N-(3-fluorophenyl)benzamide]	58
COc1ccccc1NS(=O)(=O)c1cccc(C(=O)Nc2cccc(C(F)(F)F)c2)c1 [I-266, 3-(N-(2-methoxyphenyl)sulfamoyl)-N-(3-(trifluoromethyl)phenyl)benzamide]	58
COc1ccc(N(C)S(=O)(=O)c2cccc(C(=O)Nc3ccc(Br)cc3)c2)cc1 [I-267, N-(4-bromophenyl)-3-(N-(4-methoxyphenyl)-N-methylsulfamoyl)benzamide]	58
COc1ccccc1NS(=O)(=O)c1cccc(C(=O)Nc2cccc([N+](=O)[O-])c2)c1 [I-268, 3-(N-(2-methoxyphenyl)sulfamoyl)-N-(3-nitrophenyl)benzamide]	58
COC(=O)C1(c2ccc(Br)cc2)CCN(C(=O)c2cccc(S(=O)(=O)Nc3ccc(Br)cc3)c2)C1 (stereo not shown) [I-269, methyl 3-(4-bromophenyl)-1-(3-(N-(4-bromophenyl)sulfamoyl)benzoyl)pyrrolidine-3-carboxylate]	57
Cc1cccc(NC(=O)c2cccc(S(=O)(=O)Nc3ccc4c(c3)OCO4)c2)c1 [I-270, 3-(N-(benzo[d][1,3]dioxol-5-yl)sulfamoyl)-N-(m-tolyl)benzamide]	57
COc1ccc([N+](=O)[O-])cc1NC(=O)c1cccc(S(=O)(=O)N2c3ccccc3CC2C)c1 (stereo not shown) [I-271, N-(2-methoxy-5-nitrophenyl)-3-((2-methylindolin-1-yl)sulfonyl)benzamide]	56
Cn1cc(O)nc1NC(=O)c1cccc(S(=O)(=O)Nc2ccc(Br)cc2)c1 [I-272, 3-(N-(4-bromophenyl)sulfamoyl)-N-(4-hydroxy-1-methyl-1H-imidazol-2-yl)benzamide]	52
Cc1ccc(NC(=O)c2cccc(S(=O)(=O)Nc3ccc(Br)cc3)c2)cc1S(=O)(=O)N1CCOCC1 [I-273, 3-(N-(4-bromophenyl)sulfamoyl)-N-(4-methyl-3-(morpholinosulfonyl)phenyl)benzamide]	52
N#CCc1ccc(NC(=O)c2cccc(S(=O)(=O)Nc3ccc4c(c3)OCO4)c2)cc1 [I-274, 3-(N-(benzo[d][1,3]dioxol-5-yl)sulfamoyl)-N-(4-(cyanomethyl)phenyl)benzamide]	48
COc1ccc([N+](=O)[O-])cc1NS(=O)(=O)c1cccc(C(=O)Nc2ccc(F)c([N+](=O)[O-])c2)c1 [I-275, N-(4-fluoro-3-nitrophenyl)-3-(N-(2-methoxy-5-nitrophenyl)sulfamoyl)benzamide]	46
COc1ccc(NC(=O)c2cccc(S(=O)(=O)Nc3ccc4c(c3)OCO4)c2)cc1 [I-276, 3-(N-(benzo[d][1,3]dioxol-5-yl)sulfamoyl)-N-(4-methoxyphenyl)benzamide]	44
COc1ccc(NC(=O)c2cccc(S(=O)(=O)Nc3ccc4c(c3)OCO4)c2)cc1OC [I-277, 3-(N-(benzo[d][1,3]dioxol-5-yl)sulfamoyl)-N-(3,4-dimethoxyphenyl)benzamide]	44
COc1ccc(NS(=O)(=O)c2cccc(C(=O)Nc3ccc(Br)cc3)c2)cc1 [I-278, N-(4-bromophenyl)-3-(N-(4-methoxyphenyl)sulfamoyl)benzamide]	43
COc1ccc(C(CNC(=O)c2cccc(S(=O)(=O)Nc3ccc(Br)cc3)c2)N(C)C)cc1 (stereo not shown) [I-279, 3-(N-(4-bromophenyl)sulfamoyl)-N-(2-(dimethylamino)-2-(4-methoxyphenyl)ethyl)benzamide]	42
COc1ccc(NC(=O)c2cccc(S(=O)(=O)Nc3ccc(Br)cc3)c2)cn1 [I-280, 3-(N-(4-bromophenyl)sulfamoyl)-N-(6-methoxypyridin-3-yl)benzamide]	40

The remaining lines, values ahead:

% Inhibition of Apyrase [%]	Compound
39	O=C(NCC(=O)N1CCCCC1)c1cccc(S(=O)(=O)Nc2ccc(Br)cc2)c1 [I-281, 3-(N-(4-bromophenyl)sulfamoyl)-N-(2-oxo-2-(piperidin-1-yl)ethyl)benzamide]
34	NC(=O)C1CCCN(C(=O)c2cccc(S(=O)(=O)Nc3ccc(Br)cc3)c2)C1 (stereo not shown) [I-282, 1-(3-(N-(4-bromophenyl)sulfamoyl)benzoyl)piperidine-3-carboxamide]
29	O=C(Nc1ccc(N2CCOCC2)cc1)c1cccc(S(=O)(=O)Nc2ccc3c(c2)OCO3)c1 [I-283, 3-(N-(benzo[d][1,3]dioxol-5-yl)sulfamoyl)-N-(4-morpholinophenyl)benzamide]
27	O=C(NCCCN1CCOCC1)c1cccc(S(=O)(=O)Nc2ccc(Br)cc2)c1 [I-284, 3-(N-(4-bromophenyl)sulfamoyl)-N-(3-morpholinopropyl)benzamide]
17	O=C(Nc1cccc(C(F)(F)F)c1)c1cccc(S(=O)(=O)Nc2ccccc2F)c1 [I-285, 3-(N-(2-fluorophenyl)sulfamoyl)-N-(3-(trifluoromethyl)phenyl)benzamide]
13	O=C(NCCCCO)c1cccc(S(=O)(=O)Nc2ccc(Br)cc2)c1 [I-286, 3-(N-(4-bromophenyl)sulfamoyl)-N-(4-hydroxybutyl)benzamide]
11	CCCNC(=O)CN(CCC)C(=O)c1cccc(S(=O)(=O)Nc2ccc(Br)cc2)c1 [I-287, 3-(N-(4-bromophenyl)sulfamoyl)-N-(2-oxo-2-(propylamino)ethyl)-N-propylbenzamide]
69	N#Cc1cccc(NC(=O)c2cccc(NS(=O)(=O)c3ccc(Cl)c(Cl)c3)c2)c1 [I-316, N-(3-cyanophenyl)-3-((3,4-dichlorophenyl)sulfonamido)benzamide]
68	Cc1ccc(F)cc1S(=O)(=O)Nc1cccc(C(=O)Nc2cccc(C#N)c2)c1 [I-318, N-(3-cyanophenyl)-3-((5-fluoro-2-methylphenyl)sulfonamido)benzamide]
67	CC(=O)c1cccc(S(=O)(=O)Nc2cccc(C(=O)Nc3cccc(C(F)(F)F)c3)c2)c1 [I-319, 3-((3-acetylphenyl)sulfonamido)-N-(3-(trifluoromethyl)phenyl)benzamide]
62	Cc1cccc(NC(=O)c2cccc(NS(=O)(=O)c3ccc4c(c3)OCCO4)c2)c1C [I-320, 3-((2,3-dihydrobenzo[b][1,4]dioxine)-6-sulfonamido)-N-(2,3-dimethylphenyl)benzamide]
57	O=C(Nc1cccc(C(F)(F)F)c1)c1cccc(NS(=O)(=O)c2ccc(Cl)c(C(=O)O)c2)c1 [I-321, 2-chloro-5-(N-(3-((3-(trifluoromethyl)phenyl)carbamoyl)phenyl)sulfamoyl)benzoic acid]
47	O=C(Nc1cccc(C(F)(F)F)c1)c1cccc(NS(=O)(=O)c2ccc(Br)c(C(=O)O)c2)c1 [I-322, 2-bromo-5-(N-(3-((3-(trifluoromethyl)phenyl)carbamoyl)phenyl)sulfamoyl)benzoic acid]
42	COc1ccc(OC)c(S(=O)(=O)Nc2cccc(C(=O)Nc3cccc(C(F)(F)F)c3)c2)c1 [I-323, 3-((2,5-dimethoxyphenyl)sulfonamido)-N-(3-(trifluoromethyl)phenyl)benzamide]
41	O=C(O)CCc1ccc(S(=O)(=O)Nc2cccc(C(=O)Nc3cccc(C(F)(F)F)c3)c2)cc1 [I-324, 3-(4-(N-(3-((3-(trifluoromethyl)phenyl)carbamoyl)phenyl)sulfamoyl)phenyl)propanoic acid]
34	NC(=O)c1cc(NC(=O)c2cccc(NS(=O)(=O)c3ccc4c(c3)OCCO4)c2)ccc1Cl [I-325, N-(3-carbamoyl-4-chlorophenyl)-3-((2,3-dihydrobenzo[b][1,4]dioxine)-6-sulfonamido)benzamide]
13	O=C(Nc1cccc(C(F)(F)F)c1)c1cccc(NS(=O)(=O)c2ccccc2F)c1 [I-326, 3-((2-fluorophenyl)sulfonamido)-N-(3-(trifluoromethyl)phenyl)benzamide]
